Results as given in a melting point compilation (Tetko et al.; mined from patent text by program, amines drawn as free bases though some values may be those of a salt).

Compound	melting point [°C]
COc1ccc2occ(CCN3CCN(c4cc(Cl)cc5cccnc45)CC3)c2c1	72
O=C(Nc1cnccn1)C(Cl)(Cl)Cl	68
OCCc1nccn1CCCCc1ccc(O)cc1	75 to 77
COc1cc2c(cc1-c1ccc(F)cc1)C(=CNc1ccc(CN3CCCCC3)cc1)C(=O)NC2=O	227 to 230
COc1cc2c(c(Cl)c1Cl)C(=O)CCC2	132
CNc1ccc2cccc(OCCOc3nccnc3N3CCNCC3)c2n1	54 to 56.5
NC(=O)c1c(Br)cc(Br)c(C(=O)O)c1Br	> 280
NC(=O)c1nc(-c2ccccn2)n2c1CN=C(c1ccccc1Cl)c1cc(Cl)ccc1-2	255 to 257
COc1cccc(S(=O)(=O)Nc2ccc(Cl)nc2I)c1	154
CCOC(=O)c1nc(-c2ccc(F)cc2)c(CCCl)s1	81.5 to 82.5
COc1ccc(CN(C)CCc2ccc(NC(=O)c3cccc4c(=O)c5cccc(OC)c5[nH]c34)cc2)cc1OC	172
CN(Cc1cc2c(=O)c(C(=O)NCc3ccc(Cl)cc3)cn(C)c2o1)CC(O)c1ccccn1 (centres undefined)	130 to 132
COc1ccc2nccc(CCNC(C)=O)c2c1	113 to 115
CCCC1(C2=CCN(C)CC2)c2ccccc2CCc2ccccc21	122 to 124
CCOC(=O)c1c2n(c3cc(N4CCN(CC(C)=O)CC4)c(F)cc3c1=O)CS2	170 to 172
CCCCCCn1c(=O)n(C)c(=O)c2cnn(C)c21	106 to 107
Clc1nccnc1N1CCNCC1	47 to 53
CC(C)n1nc(-c2c(-c3ccccc3)nn3ccc(N4CCN(c5ccccn5)CC4)cc23)ccc1=O	221 to 222
Cc1cc(C=C2SCNC2=O)cc(C(C)(C)C)c1O	162 to 165
CC(C)(C)c1ncc(Nc2ncc(-c3ccc4ccncc4c3)c3ccccc23)cn1	231 to 232
Clc1ccc(-c2cnn3cnnc3n2)cc1	> 300
CC1=C(C(C)O)C(C)(C)CCC1=NO (centres undefined)	131 to 135
CCOC(=O)c1cc2cc(O)ccc2n1C	140 to 142
COc1ccc(C2=NN(Cc3ccccc3N)C(=O)SC2)cc1OC	105
N[C@H]1Cc2ccccc2[C@@H]1O	104 to 106
CCN(CC)C(=O)NC1CC2c3cccc4[nH]c(C(C)=O)c(c34)CC2N(C)C1 (centres undefined)	114 to 116

Compound	melting point [°C]
OCCN1CCN(Cc2nnc3n2-c2ccc(Cl)cc2C(c2ccccc2)=NC3)CC1	113 to 118
Cc1cccc(CC(=O)c2ccnc(-c3ccc(OC(F)(F)F)cc3)c2)n1	60
c1ccc(Cn2c3ccccc3c3ccccc32)cc1	121 to 122
Nc1ccc(SCc2csc(NC=O)n2)cc1	180 to 182
COC1CN(CCCNc2ncccn2)CCC1NC(=O)C1=CC(Cl)(OC)C(N)C=C1 (centres undefined)	158
CN1C(=O)C(Br)(Br)CC1c1cncc(Br)c1 (centres undefined)	139 to 140
CN(C)S(=O)(=O)c1ccc(-c2ccc(N)cc2)cc1	178 to 180
CN(CC#N)[C@H](COCc1cc(C(F)(F)F)cc(C(F)(F)F)c1)c1ccccc1	110 to 111
NC(=O)c1nnn(Cc2cc(Br)cc(C(Cl)=C(Cl)Cl)c2)c1N	175 to 177
CC(C)Oc1cccc(-c2ccc3cnc(Nc4ccc(C5CCN(CC(N)=O)CC5)cc4)nn23)c1	233 to 235
O=C(O)c1ccc(OC(F)=C(F)F)cc1	139 to 140
Cc1nccc2[nH]c(=O)c(C(=O)O)cc12	255 to 257
c1ccc(-c2nc(N3CCN(c4ccccn4)CC3)c3ccccc3n2)cc1	164 to 166
Cc1c(Cc2cccc3ccccc23)c(=O)oc2cc(OCc3nnn[nH]3)cc(OCc3nnn[nH]3)c12	164 to 174
CCOC(=CC=O)C1CCC2C3CCC4CC(O)CCC4(C)C3C(=O)CC12C (centres undefined)	175 to 178
CCn1c(C)c(C(=O)c2ccccc2)c(N=Cc2ccccc2)c1-c1ccccc1	147 to 148
CCCCCc1cnc(-c2ccc(-c3ccc(Br)cc3)cc2)nc1	137
O=c1oc(-c2ccc(Sc3ccccc3)cc2)nc2sccc12	203 to 204
CC(=O)NNC(=N)c1ncc([N+](=O)[O-])n1C	294
O=C1CCCc2cc(NS(=O)(=O)c3ccccc3)ccc21	164 to 165
CNC(=O)c1cc(Br)cc(F)c1Nc1nc(Cl)ncc1Cl	246 to 249
CCCN1C(=O)N2C[C@@H](Cc3ccccc3)N=C2c2c1nc(CCl)n2Cc1ccccc1	112 to 113
COC(=O)c1cc(-c2ccc3c(=O)[nH]c(=O)[nH]c3n2)ccc1OC	301 to 303
COc1cc2ccc(-c3ccc(C(=O)O)cc3)cc2cc1C12CC3CC(CC(C3)C1)C2	360
CCOC(=O)c1ccc2[nH]cc(CCNC(=O)OC(C)(C)C)c2c1	170 to 171
COC(=O)c1cc(Br)c(OC)c2c1OCO2	165 to 166

Compound	melting point [°C]
c1ccc2c(c1)CCC1C2=NNC1c1ccncc1 (centres undefined)	169 to 173
NC1=Nc2cccc3c(=O)[nH]nc(c23)N1	> 300
CCOC(=O)C1Oc2ccc(Cl)cc2C(C)(c2ccccc2)O1 (centres undefined)	92
CCCCCN(CCC12CC3CC(CC(C3)C1)C2)C(=O)NCC(Cc1ccncc1)Cc1ccncc1	124 to 136
CCOc1ccc(-c2nc(CCC(=O)c3nccs3)cs2)cc1OCC	93.1 to 94.4
CCOC(=O)c1cc(S(=O)(=O)c2ccccc2)c2ccccn2c1=O	182
CCOC(=O)c1cc(=O)c2c(OCC(O)COc3ccc(Cl)cc3Cl)cccc2o1 (centres undefined)	98 to 100
COc1cc(OC)nc(-c2c(C)[nH]c3c(C)cccc23)n1	145 to 147
COC(=O)c1ccc(C(C)(C)C)[nH]c1=O	171 to 174
CC1=C(CO)C(=O)OC(C(C)C2CCC3C4CC5OC56C(O)C=CC(=O)C6(C)C4CCC23C)C1 (centres undefined)	227 to 228
COc1ccc(N2CCN(c3ccc([N+](=O)[O-])cc3)CC2)nc1	160
COc1ccc(OC)c2nc(Cl)c(C=O)cc12	177 to 178
O=C(O)c1cc(-c2ccc(Br)cc2)c(=O)n(Cc2ccc(Cl)cc2Cl)c1	137 to 139
CC1(C)CC(S(C)(=O)=O)=NO1	82 to 84
CCCCOc1ccc2c(=O)c(-c3nnnn3C)cn(C)c2c1	187 to 190
CCCCc1nc2c(N)nc3ccccc3c2n1CCCNC(=O)OC(C)(C)C	193
COc1cc(C)nc(-n2nc(C)n(NS(=O)(=O)c3ccccc3OC(F)(F)F)c2=O)n1	248
COc1ccc(C2=NN(c3ccccc3)C(=O)[C@H]3CCCC[C@@H]23)cc1OC (relative stereo)	122 to 124
CCCCCN(CCC12CC3CC(CC(C3)C1)C2)C(=O)NCCCCc1ccncc1	74.1 to 78.1
COc1ccc(CCC(=O)CCI)cc1	38 to 42
Cc1ccc(C(=O)N(C)C)cc1-c1nc(NC2CCN(C)CC2)nc2c1CNC(=O)N2c1c(F)cccc1F	163 to 165
CC1CCc2ncc(C#N)c(=O)n21 (centres undefined)	148
CC(=O)OCC(C)(C)C(=O)N(O)Cc1ccccc1Cl	78 to 80
CCN(CC)S(=O)(=O)c1cc(C(=O)CCl)ccc1Cl	63 to 65
Cn1nc2c(sc3ccccc32)c1N	233
CNc1nc(Cl)cc(NS(=O)(=O)c2cccc(C(F)(F)F)c2)n1	190 to 193

Compound	melting point [°C]
CC1(C)C(=O)Nc2cc3[nH]c(-c4ccc(O)cc4)nc3cc21	240
CSc1ccc(C(CC2CCCC2)C(=O)O)cc1C(F)(F)F (centres undefined)	105 to 106
CCOc1ccc(C2=NN(Cc3ccc(C(=O)O)cc3)C(=O)[C@H]3CCCC[C@@H]23)cc1OCC (relative stereo)	152 to 154
CCOC(=O)C1=C(N)NC(C)=C(C(=O)OC)C1c1cccc([N+](=O)[O-])c1 (centres undefined)	124
Cc1cc(C(O)(c2ccc(Cl)cc2)C(F)(F)F)ccc1N (centres undefined)	157 to 160
CCOC(=O)c1ccc(NCc2ccc3ccc4nc(C)[nH]c(=O)c4c3c2)cc1F	> 200
CCCNC(=O)c1c(OCc2ccc(-c3ccccc3-c3nnn[nH]3)cc2)cc(C)nc1C	196 to 198
O=C(c1ccc(-c2ccccc2)cc1)c1ccc2n1Cc1ccccc1N(C(=O)COc1ccc(Cl)cc1)C2	155 to 157
COC(=O)[C@H]1[C@@H]2CC[C@@H](C2)[C@@H]1C(=O)O	59 to 60
CC(C)c1nn(-c2nnc(C(F)(F)F)s2)cc1CCCO	89 to 90
NS(=O)(=O)Oc1ccc(Cl)c(Cl)c1	121 to 123
Cc1ccc(-c2nc(-c3ccc(C)cc3)nc(-c3ccc(C)cc3)n2)cc1	282 to 285
CC(C)CCCc1c(-c2ccc(S(C)(=O)=O)cc2)cnn(-c2ccc(F)cc2)c1=O	112 to 115
CCC1(C)SC(NC)=NN1C(=O)C(C)(C)C (centres undefined)	132 to 136
O=C(OC1CCN(Cc2ccccc2)CC1)c1ccccc1[N+](=O)[O-]	98 to 99
Clc1cccc(Oc2ccc(OCn3cnc(Cl)c3Cl)cc2)n1	94 to 98
O=C1C2=C(CCCC2)C(=O)N1c1c(F)cc(Cl)c2c1CC(CO)O2 (centres undefined)	193 to 195
NC1CSC(c2ccsc2)CNC1=O (centres undefined)	190 to 191
CCCSc1ncc(CCC(=O)O)n1Cc1ccccc1Cl	169 to 170
CCCC(NS(=O)(=O)c1ccc(Cl)cc1)C(=S)Nc1ccc(CC(=O)O)cc1 (racemic)	170 to 177
O=C(O)CC1CCCc2c1[nH]c1ccc(F)cc21 (centres undefined)	124 to 126
CCCCS(=O)(=O)c1ccc(C(=O)Nc2ccc3cc(CN4CCCC4)cnc3c2C)cc1	210
O=C(O)c1cnc(Nc2cccc(C(F)(F)F)c2)[nH]c1=O	252 to 254
OC[C@@H]1CC=CC[C@@H]1CO	33 to 35
COc1c(C(C)(C)C)cc(COc2ccc(C=C3SC(=S)NC3=O)cc2)cc1C(C)(C)C	213 to 218
Cn1c(S)nnc1COCC(=O)O	155 to 156
